Literature values, collected in patent US20020099100A1, “Treatment of dry eye syndrome” (priority 2000, published 2002).

Tested on: dry eye syndrome
Conditions: in vivo

Vitamin A
Underlying cellular changes that lead to dry eye syndrome: reverse many of the underlying cellular changes
